The text below walks through data of patent publication US12251422B2, “Compositions and methods for treating neurological and other disorders” (Rush University Medical Center, priority 2018, dated 2025).

The target of assay [1] is T1, interaction between TLR4 and MyD88 (Mus musculus, UniProt Q9QUK6).
T1 construct: endogenous in cells; host or cells: BV-2 microglial cells
T1 sequence (Q9QUK6 26-835): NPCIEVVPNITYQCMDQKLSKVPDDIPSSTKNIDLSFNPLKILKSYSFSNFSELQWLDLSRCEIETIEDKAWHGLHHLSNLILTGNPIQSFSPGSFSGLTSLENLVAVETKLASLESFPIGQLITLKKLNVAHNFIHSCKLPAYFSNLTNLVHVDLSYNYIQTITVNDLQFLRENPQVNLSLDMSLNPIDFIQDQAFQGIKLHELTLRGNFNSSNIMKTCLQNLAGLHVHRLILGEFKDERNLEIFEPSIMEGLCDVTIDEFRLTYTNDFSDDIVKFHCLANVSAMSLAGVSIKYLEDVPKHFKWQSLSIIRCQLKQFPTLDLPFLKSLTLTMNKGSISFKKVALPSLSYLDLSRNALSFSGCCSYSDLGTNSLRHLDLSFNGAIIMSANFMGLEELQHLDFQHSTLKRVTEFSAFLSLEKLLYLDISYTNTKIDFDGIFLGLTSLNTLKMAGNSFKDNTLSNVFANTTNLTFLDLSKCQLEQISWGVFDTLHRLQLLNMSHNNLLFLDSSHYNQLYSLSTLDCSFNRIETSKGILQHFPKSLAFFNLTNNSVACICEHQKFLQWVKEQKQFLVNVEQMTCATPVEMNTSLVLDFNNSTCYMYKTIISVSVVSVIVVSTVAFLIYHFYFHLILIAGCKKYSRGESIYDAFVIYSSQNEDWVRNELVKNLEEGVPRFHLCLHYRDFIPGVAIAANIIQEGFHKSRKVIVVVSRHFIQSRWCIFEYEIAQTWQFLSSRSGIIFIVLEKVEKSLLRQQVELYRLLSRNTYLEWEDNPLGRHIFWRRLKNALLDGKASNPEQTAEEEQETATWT
The experiment in a line: MyD88 immunoprecipitation / TLR4 western blot in BV-2 microglial cells. It is filed as cell-based. The following applies: BV-2 cells, peptide preincubated 1 h, LPS for 1 h, serum-free. Here is the method:
FIG. 3(A-L). Selective disruption of TLR2 and MyD88 interaction by wtTIDM. In silico analyses of interactions of wtTIDM with TLR1, TLR4, TLR5, TLR6, TLR7, and TLR9. A rigid body interaction analyses were performed in pydock in silico analysis tool. […] G) BV-2 microglial cells preincubated with WtTIDM and mTIDM peptides for 1 h were stimulated with 1 μM fibrillar Aβ1-42 under serum-free condition. After 1 h, cellular extracts were immunoprecipitated with anti-MyD88 antibody followed by western blot of immunoprecipitates for TLR2. As control, cellular extracts were immunoprecipitated with normal IgG. Input was also immunoblotted with TLR2 and MyD88. H) Bands were scanned and values (TLR2/Input) presented as relative to control (n=2 replicates/condition in 3 independent experiments). Results were analyzed by two-sample t-tests. I) BV-2 microglial cells preincubated with wtTIDM and mTIDM peptides for 1 h were stimulated with LPS under serum-free condition. After 1 h, cellular extracts were immunoprecipitated with anti-MyD88 antibody followed by western blot of immunoprecipitates for TLR4. As control, cellular extracts were immunoprecipitated with normal IgG. Input was also immunoblotted with TLR4 and My D88. […] Results were analyzed by two-sample t-tests. […] Results were analyzed by two-sample t-tests.

In the next assay the test system is NF-κB. The experiment in a line: NF-κB activation by EMSA in primary Tlr2−/− microglia. The class given is cell-based, mouse. The following applies: peptide 1 h, 1 μM fibrillar Aβ1-42 for 1 h. On the procedure: FIG. 16 (A-F). […] Primary microglia isolated from WT (A) and TLR2 (−/−) (B) mice were treated with different concentrations of wtTIDM peptide for 1 h followed by stimulation with 1 μM fibrillar Aβ1-42 under serum-free condition. After 1 h of stimulation, the activation of NF-κB was monitored by EMSA. WT (C & D) and TLR2 (−/−) (E & F) microglia were treated with different concentrations of wtTIDM and mTIDM peptides for 1 h followed by stimulation with 1 μM fibrillar Aβ1-42 under serum-free condition. After 18 h of stimulation, levels of TNFα (C & E) and IL-1β (D & F) were monitored in supernatants by ELISA (n=2 replicates/condition in 3 independent experiments). ap<0.001 vs control; bp<0.001 vs stimuli by two-sample t-tests.
Nuclear extracts were isolated and EMSA was carried out as described before (22, 23).
A general note: A gel shift assay detects complexes by their altered migration in electrophoresis.

A further assay has as its system 5×FAD Tg mice. The experiment in a line: Neuronal apoptosis and plasticity-related molecules in hippocampus of 5×FAD Tg mice. It is filed as in vivo, mouse. Conditions: 0.1 mg/kg body wt/2 d intranasal, 30 d. The source says:
FIG. 6 (A-N). Intranasal delivery of wtTIDM, but not mTIDM, peptide inhibits neuronal apoptosis in vivo in the hippocampus and improves memory and learning in Tg mice. […] After 30 d of treatment, mice were sacrificed and hippocampal sections were double-labeled for TUNEL & NeuN (A). […] Hippocampal extracts of all groups of mice (n=4) were immunoblotted for cleaved caspase 3 (D). Actin was run as loading control. E) Bands were scanned and values (cleaved caspase 3/Actin) are presented as relative to non-Tg control. […] Protein levels of PSD-95. NR2A and GluR1 were monitored in hippocampal extracts by Western blot (F). Bands were scanned and values (G, PSD-95/Actin; H, NR2A/Actin; I, GluR1/Actin) are presented as relative to non-Tg control. […] Mice were tested for Barnes maze (J, latency; K, number of errors made) and T maze (L, number of positive turns; M, number of negative turns). Short-term memory was also monitored by novel object recognition test, which is represented by discrimination index (N). Eight mice (n=8) were used in each group and results were analyzed by one-way ANOVA.
B6SJL-Tg (APPSwFlLon,PSEN1*M146L*L286V) 6799Vas/J transgenic (5×FAD or termed here as Tg) mice were purchased from Jackson Laboratories (Bar Harbor, ME). […] Briefly, TIDM peptides were dissolved in 5 μl normal saline, mice were hold in supine position and saline was delivered into one nostril using a pipetman.
It was performed using a commercially available kit (TdT FragEL™, Calbiochem) as described before (10, 22).

Consider `CC[C@H](C)[C@H](NC(=O)[C@H](CCCCN)NC(=O)[C@@H](NC(=O)[C@H](CCC(N)=O)NC(=O)[C@H](CCCNC(=N)N)NC(=O)[C@@H](N)CC(=O)O)[C@@H](C)CC)C(=O)N[C@@H](Cc1c[nH]c2ccccc12)C(=O)N[C@@H](Cc1ccccc1)C(=O)N[C@@H](CCC(N)=O)C(=O)N[C@@H](CC(N)=O)C(=O)N[C@@H](CCCNC(=N)N)C(=O)N[C@@H](CCCNC(=N)N)C(=O)N[C@@H](CCSC)C(=O)N[C@@H](CCCCN)C(=O)N[C@@H](Cc1c[nH]c2ccccc12)C(=O)N[C@@H](CCCCN)C(=O)N[C@@H](CCCCN)C(=O)N1CCC[C@H]1C(=O)NCC(=O)N[C@@H](C)C(=O)N[C@@H](Cc1c[nH]cn1)C(=O)N[C@@H](CCC(N)=O)C(=O)N[C@@H](CCCCN)C(=O)O` [wtTIDM, drqikiwfqnrrmkwkkPGAHQK], for which the “effect on LPS-increased interaction between TLR4 and MyD88” value in assay [1] is on record as “had no effect”. For the same molecule, in the assay with NF-κB, the “inhibition of fibrillar Aβ1-42-induced activation of NF-κB in Tlr2−/− microglia” value is “remained unable to inhibit”. For the same molecule, in the assay with 5×FAD Tg mice, the “PSD-95, NR2A and GluR1 proteins in the hippocampus” value is recorded as “significant restoration”; the “elevated level of cleaved caspase 3 in the hippocampus” value was “reduced”; the “neuronal apoptosis in the hippocampus (TUNEL & NeuN)” value is “attenuated”.
